Row | melting point | SMILES
1 | 55.3 to 57.5 °C | O=CCOc1ccccc1OCC(F)(F)F
2 | 236 to 238 °C | CCNC1=NS(=O)(=O)c2cccc(F)c21
3 | 147 to 148 °C | CCCCCS(=O)(=O)NC(=O)/C=C/c1cc(C(C)(C)C)nn1Cc1ccc(C(F)(F)F)cc1Cl
4 | 253 to 254 °C | O=C(O)c1ccc(-c2cnc(-c3ccc(C(F)(F)F)cc3)o2)cc1
5 | 205 °C | CCS(=O)(=O)Nc1cnc(N2CCC(C(=O)O)CC2)nc1NCc1ccccc1
6 | 194 to 196 °C | Cc1ccc2c(c1)N=C(N1CCC(C)CC1)c1cccc3c1N2CC3
7 | 167 to 169 °C | COc1ccc(S(=O)(=O)N2c3ccccc3-c3ccccc3C2C)cc1 (stereo not drawn)
8 | 204 °C | COc1ccccc1C(=C1CN(C(c2ccccc2)c2ccccc2)C1)S(C)(=O)=O
9 | 198 °C | CC(C)(N)C(=O)NCCn1ccc2ncnc(Nc3ccc(Oc4cccc5sncc45)c(Cl)c3)c21
10 | 102 to 104 °C | CCOC(=O)c1c2ccc(Cl)cc2c(-c2ccccc2)n1CCNC(=O)OCc1ccccc1
11 | 225 to 230 °C | COc1ccc2c(Cc3c(Cl)cncc3Cl)nnc(-c3nccs3)c2c1
12 | 158 to 160 °C | Cc1ccc(C(=O)NCC(O)CO)cc1-n1c(C)cc(OCc2ccccc2CNC(=O)Nc2cc(C(C)(C)C)nn2-c2cccc(OCCO)c2)c(Cl)c1=O (stereo not drawn)
13 | 67 to 70 °C | O=C(c1ccc(OC(F)(F)F)cc1)c1sccc1O
14 | 187 to 189 °C | CCOCc1nc2c(N)nc3ccccc3c2n1CC(C)(C)OCCS(=O)(=O)c1ccccc1
15 | 111 to 113 °C | CN1C(=O)C=C(c2cccc(Cl)c2)C1=O
16 | 158 °C | O=[N+]([O-])c1nc(NCCO)ccc1NCCO
17 | 129 to 131 °C | Cc1ccc(S(=O)(=O)OCC2Cc3cccc([N+](=O)[O-])c3O2)cc1 (stereo not drawn)
18 | 279 to 281 °C | COc1ncccc1-c1nc(C(N)=O)c2[nH]c(=O)n(-c3ccccc3)c2n1
19 | 83 to 85 °C | CCOC(=O)C(Cc1ccccc1)(C(=O)Nc1ccc(Cl)cc1)c1ccccc1 (stereo not drawn)
20 | 260 °C | NS(=O)(=O)c1cccc(NC(=O)c2cnn3c(C(F)(F)F)cc(-c4ccc(Cl)cc4)nc23)c1
21 | 97 to 99 °C | CCc1cc(C(=O)O)c(C)o1
22 | 106 °C | FC(F)(F)c1cccc(Oc2nccc(-c3ccc(Cl)c(Cl)c3)n2)c1
23 | 161 to 162 °C | C=C1CC(C)(COc2cc(=O)oc3ccccc23)OC1=O (stereo not drawn)
24 | 248 °C | COC(=O)c1sc2ccc(NC(C)=O)cc2c1N
25 | 91 to 93 °C | CC(C)n1c(=O)n(C)c(=O)c2cc(Cc3ccccc3)sc21

Row | melting point | SMILES
26 | 80 to 81 °C | CCCCCCc1c(Cl)nc(NC=O)nc1Cl
27 | 150 to 158 °C | CCOC(=O)C(=O)Nc1ccc(Oc2ccc(NC(=O)C(=O)OCC)cc2)cc1
28 | 240 to 243 °C | Nc1ccc2c(c1N)Cc1ccccc1-2
29 | 156 to 158 °C | c1ccc(CN2C[C@H]3CCCC[C@@]3(Cc3ccccc3)C2)cc1 (relative stereo)
30 | 271 to 272 °C | CCn1c(=O)c2[nH]c(/C=C/c3cccc(OC)c3)nc2n(CC)c1=O
31 | 82 to 83 °C | CCOC(=O)C(Cc1ccc(OC)c(OC)c1)NC(=O)c1ccccc1 (stereo not drawn)
32 | 160 to 162 °C | O=C1C(=O)c2ccccc2C2=C1SCC1(CCN(C(=O)c3cccc([N+](=O)[O-])c3)CC1)O2
33 | 143 °C | CCC(C(=O)O)c1cccc(C(=O)c2cc3ccsc3s2)c1 (stereo not drawn)
34 | 227 to 228 °C | Clc1ccc2[nH]c3c(c2c1)CN(CCCCc1ccncc1)CC3
35 | 132 to 134 °C | O=C(OCC(Cl)(Cl)Cl)N1CCC(=C2c3ccccc3Oc3ccccc32)CC1
36 | 103 to 104 °C | CCCCc1nn(-c2ccccc2Cl)c(=O)[nH]1
37 | 83 to 85 °C | CON=Cc1cnnc2ccccc12
38 | 168 to 170 °C | CS(=O)(=O)c1ccc(-c2ccccc2Br)cc1
39 | 181 to 185 °C | O=C(O)COc1cc2c(c(Cl)c1Cl)C(=O)C(c1ccccc1)C2 (stereo not drawn)
40 | 114 to 115 °C | N[C@@H](Cc1ccc(C(F)(F)F)cc1)[C@H](O)c1ccc(Oc2ccccc2)cc1 (racemic)
41 | 299 to 300 °C | O=C1C(=O)c2ccccc2C2=C1SCC1(CCN(C(=O)c3ccc(-n4cccn4)cc3)CC1)O2
42 | 63 to 66 °C | CN(C)c1cc2nc(C(C)(C)C)sc2cc1N=C=S
43 | 155 to 157 °C | O=C1c2ccccc2C(=O)N1OC/C=C/C=C/c1ccc(F)cc1
44 | 110 to 112 °C | COC(=O)COc1c(Cl)cc(Cl)c(C#N)c1Cl
45 | 44 to 46 °C | N#Cc1ccc(NCCCN2C3CCC2CNC3)cc1
46 | 168 to 169 °C | Nc1ccc2ncc(Br)cc2n1
47 | 154 to 155 °C | CCOC1=C(C(=O)O)CN(C2CCCCC2)C1=O
48 | 210 to 211 °C | Cc1c(Cc2cccnc2)ccc2ccc(C(=O)O)cc12
49 | 100 °C | Cc1cccc(C(O)CN2CCNC2=S)c1 (stereo not drawn)
50 | 98 to 101 °C | COC(=O)c1sc(C)cc1C

Row | melting point | SMILES
51 | 136 to 137 °C | Cc1cccc(C2=C(c3ccc(S(C)(=O)=O)cc3)CN(C3CC3)C2=O)c1
52 | 130 to 132 °C | N#Cc1cc2c3ccccc3n(Cc3ccccc3)c2s1
53 | 101 °C | O=C1C2=C(C=C3OCCC13)CCCO2 (stereo not drawn)
54 | 113 to 114 °C | CC(=O)OCc1c(O)cccc1[N+](=O)[O-]
55 | 286 to 288 °C | CC(=O)OC(CN1C(=O)N(C(C)=O)C2(CC(C)(C)N(C(C)=O)C(C)(C)C2)C1=O)CN1C(=O)N(C(C)=O)C2(CC(C)(C)N(C(C)=O)C(C)(C)C2)C1=O
56 | 123 to 125 °C | NS(=O)(=O)c1ccccc1CSC1=NCCS1
57 | 195 to 196 °C | NC(=O)CC1Nc2cccc3cccc(c23)S1(=O)=O (stereo not drawn)
58 | 140 to 141 °C | COc1cc(C)nc(C(=O)O)n1
59 | 131 to 134 °C | S=c1[nH]ccn1CCc1cccs1
60 | 117 to 119 °C | C[Si](C)(C)c1ccc(Cl)c(Cl)c1C(=O)O
61 | 92 °C | O=S(Cc1ccccc1)c1ncc(Cl)cn1 (stereo not drawn)
62 | 144 to 145 °C | O=C(NCc1cc(C(F)(F)F)cc(C(F)(F)F)c1)c1cnc(Cl)nc1Cl
63 | 249 to 250 °C | O=C(Nc1cccnn1)N1CCN(c2cc(-c3ccc(F)cc3F)ncn2)CC1
64 | 241 to 242 °C | NC(=O)C1=NN(c2ccccc2)C(C(=O)O)=NN1c1ccccc1
65 | 200 to 202 °C | Cc1nccc(N2CCC(C(=O)N3CCN(S(=O)(=O)c4ccc(Br)cc4)CC3)CC2)n1
66 | 155 to 156 °C | COc1c(Cl)ccc(-c2nc(C(=O)OCc3ccc(OC(F)(F)F)cc3)c(Cl)c(N)c2F)c1F
67 | 98 to 100 °C | C#CCN=c1sc2cc(OC(F)(F)F)ccc2n1CC(=O)c1ccc(C)cc1
68 | 186 to 190 °C | C1=Cc2ccccc2C=CN1
69 | 237 to 241 °C | Cc1cc(C)c(C2C(=O)NC3(CCN(N(C)C)CC3)C2=O)c(C)c1 (stereo not drawn)
70 | 172 to 174 °C | CCCN=C(N)Nc1ccnc(CCCCc2c[nH]cn2)n1
71 | 129 to 133 °C | COC(=O)C(Cc1ccccc1)Oc1ccc2cc(CNC(=O)c3oc4ccccc4c3C)ccc2c1Br (stereo not drawn)
72 | 172 to 175 °C | Fc1ccc2c(c1)Oc1ccccc1-c1nc(SC(F)(F)C(F)F)[nH]c1-2
73 | 233 to 237 °C | CNc1nc(N)ncc1-c1cccc(Cl)c1Cl
74 | 123 to 124 °C | NC(=O)COc1ccc(OCCn2ccnc2)cc1
75 | 211 °C | ON=C1c2cc(Cl)ccc2-n2cccc21

Row | melting point | SMILES
76 | 112 to 113 °C | Cc1ccc(C)n1-c1ccc(CC#N)cc1
77 | 142 to 144 °C | CNc1cn(-c2cncc(F)c2)nc1C
78 | 232 to 235 °C | COc1ccc2c(c1OCCc1ccccc1)CC(C(=O)O)NC2 (racemic)
79 | 104 to 105 °C | O=Cc1ccc(C(O)c2cccnc2)cc1 (stereo not drawn)
80 | 121 to 127 °C | O=C(Nc1ccccc1)C1CCNCC1
81 | 52 to 53 °C | CCCc1c(O)c(C(C)=O)cc2c1CCCC2
82 | 226 to 228 °C | CCOC(=O)c1sc(-c2cc3cccc(NS(=O)(=O)c4cccs4)c3[nH]2)nc1C
83 | 144 to 148 °C | CC(C=CCOC(=O)c1ccc(C(N)=O)cc1)Oc1ccc(Oc2cnc3cc(Cl)ccc3n2)cc1 (stereo not drawn)
84 | 149 to 150 °C | CC(=O)c1cn(Cc2ccccc2F)c(=O)n(Cc2ccccc2F)c1=O
85 | 186 °C | CCN(CC)CCCN1C(=O)NC(Cc2c[nH]c3ccc(Cl)cc23)C1=O (stereo not drawn)
86 | 202 to 203 °C | O=C(CCN1CCNC1=O)N1CCC(C2c3ncc(Br)cc3CCc3cc(Cl)cc(Br)c32)CC1 (single isomer, unassigned; (+))
87 | 78 to 80 °C | CC(C)C(=O)CNC(=O)c1ccccc1
88 | 173 to 174 °C | CC(C(=O)O)N1CCNC(C(=O)O)C1 (stereo not drawn)
89 | 214 to 216 °C | Cc1ccc(Cl)c(NS(=O)(=O)c2nc(C)n(-c3ncccn3)n2)c1Cl
90 | 185 to 186 °C | Cc1csc(N2CCN(Cc3ccc(C(=O)NCc4ccccc4)cc3)C2=O)n1
91 | 164 to 165 °C | COc1cc(COc2nn(-c3ccccc3)cc2C=O)ccc1OCc1nc(-c2ccccc2)sc1C
92 | 113 to 116 °C | O=C(O)c1cc(=O)c2ccc(OCCCCCOc3ccc4c(=O)ccoc4c3)cc2o1
93 | 219 to 220 °C | NC(=O)c1cccc(-n2c(=O)n(Cc3cccnc3)c(=O)c3cccnc32)c1
94 | 76 °C | NC(=O)CCNc1ccc(OC(F)(F)F)cc1
95 | 169 to 171 °C | NC(=O)C1C=Cc2ccccc2N1C(=O)c1ccccc1 (stereo not drawn)
96 | > 325 °C | O=C(O)c1cn(-c2ccccc2)c2cc(-c3ccncc3)ccc2c1=O
97 | 89 to 90 °C | CCOC(=O)Cc1ccc2c(c1)CC(NC(=O)OC)CC2 (stereo not drawn)

Row | SMILES | melting point
98 | COc1ccc(Nc2nc(NC(CO)CO)nc(N(C)C3CCN(C)CC3)n2)cc1Cl | 84 °C
99 | CCC1NC(=O)C2=C1c1ccc(Cl)cc1C(c1ccccc1Cl)=NC2 (stereo not drawn) | 233 to 235 °C
100 | Cc1ccc(CI)cc1Cl | 88 °C
101 | COC1(OC)CCC2=C3C(c4ccc(C5OCC(C)(C)CO5)cc4)CC4(C)C(=O)CCC4C3CCC2(O)C1 (stereo not drawn) | 194 to 202 °C
102 | c1ccc(-c2ccc(-c3cn([C@H]4CN5CCC4CC5)nn3)s2)cc1 | 184 °C
103 | ClCc1nc2cc(Br)ccc2s1 | 107 °C

From a melting point compilation (Tetko et al.; mined from patent text by program, amines drawn as free bases though some values may be those of a salt)
